Measurements: patent publication US11590131B2, “Compositions and methods for treating galactosemia” (Applied Therapeutics, Inc., priority 2017, dated 2023)
Entries after “also recorded” stand apart in the source; their conditions may differ.

Tests used:
Format in all cases: in vivo, rat
GALT-null rats [1] = test: Qualitative visual scoring of cataracts (0-3 scale) in GALT null rats
From the text: Rats, with impaired GALT activity due to genetic modification (GALT null), were used as a model of galactosemia. This rat model mirrors human classic galactosemia in some important ways. The rats develop physical characteristics including cataracts follow exposure to galactose, growth abnormalities, and neurological/cognitive abnormalities, which mirror abnormalities in human patients and can be quantified. The rats also have biochemical characteristics that mirror human disease including elevated levels of galactose and galactose metabolites, including galactitol and Gal1), in blood and tissues. Rats were generated from heterozygote crosses (heterozygous M3 GALT null strain representing classic galactosemia). […] Aldose reductase inhibitor (Compound A or Compound B), suspended in Gerber formula, was administered orally at about 12-hour intervals (BID) at 1 mg inhibitor/gram pup weight (=1000 mg/kg) for each dose. Before use, drug was stored at −20° C. in a bottle or tubes wrapped in aluminum foil. Just before each feeding an aliquot of drug was re-suspended in formula, mixed well, and pipetted into individual tubes to be fed to the pups (volume calculated per pup weight measured that morning). All placebo and drug tubes of formula were warmed to 37° C. immediately before feeding. Placebo and drug were fed to pups by hand using a syringe and tubing. Pups receiving drug also were fed a small additional volume of Gerber formula that had been used to wash the tube and syringe immediately after the drug feeding. To motivate eating, pups were removed from their mother (to prevent nursing) and maintained in nests in a humidified incubator for about 2 hours at 35-37° C. prior to each feeding. […] In the first part of the study, cataracts were scored visually by a blinded rater on a 3 point scale, with zero being no cataracts present (absent), 1 being mild, 2 being moderate and 3 being severe cataracts present. In the second part of the study, eyes were dissected after euthanization, photographed via digital camera, and cataracts were quantified via software

GALT-null rats [2] = test: Digital photographic quantification of cataracts in GALT null rats
From the text: Rats, with impaired GALT activity due to genetic modification (GALT null), were used as a model of galactosemia. This rat model mirrors human classic galactosemia in some important ways. The rats develop physical characteristics including cataracts follow exposure to galactose, growth abnormalities, and neurological/cognitive abnormalities, which mirror abnormalities in human patients and can be quantified. The rats also have biochemical characteristics that mirror human disease including elevated levels of galactose and galactose metabolites, including galactitol and Gal1), in blood and tissues. Rats were generated from heterozygote crosses (heterozygous M3 GALT null strain representing classic galactosemia). […] Just before each feeding an aliquot of drug was re-suspended in formula, mixed well, and pipetted into individual tubes to be fed to the pups (volume calculated per pup weight measured that morning). […] In the first part of the study, cataracts were scored visually by a blinded rater on a 3 point scale, with zero being no cataracts present (absent), 1 being mild, 2 being moderate and 3 being severe cataracts present. In the second part of the study, eyes were dissected after euthanization, photographed via digital camera, and cataracts were quantified via software

GALT-null rats [3] = test: Metabolite levels (galactitol, galactose, Gal1P) by HPLC in liver, brain and plasma of GALT null rats
From the text: Rats, with impaired GALT activity due to genetic modification (GALT null), were used as a model of galactosemia. This rat model mirrors human classic galactosemia in some important ways. The rats develop physical characteristics including cataracts follow exposure to galactose, growth abnormalities, and neurological/cognitive abnormalities, which mirror abnormalities in human patients and can be quantified. The rats also have biochemical characteristics that mirror human disease including elevated levels of galactose and galactose metabolites, including galactitol and Gal1), in blood and tissues. Rats were generated from heterozygote crosses (heterozygous M3 GALT null strain representing classic galactosemia). […] Aldose reductase inhibitor (Compound A or Compound B), suspended in Gerber formula, was administered orally at about 12-hour intervals (BID) at 1 mg inhibitor/gram pup weight (=1000 mg/kg) for each dose. Before use, drug was stored at −20° C. in a bottle or tubes wrapped in aluminum foil. Just before each feeding an aliquot of drug was re-suspended in formula, mixed well, and pipetted into individual tubes to be fed to the pups (volume calculated per pup weight measured that morning). All placebo and drug tubes of formula were warmed to 37° C. immediately before feeding. Placebo and drug were fed to pups by hand using a syringe and tubing. Pups receiving drug also were fed a small additional volume of Gerber formula that had been used to wash the tube and syringe immediately after the drug feeding. To motivate eating, pups were removed from their mother (to prevent nursing) and maintained in nests in a humidified incubator for about 2 hours at 35-37° C. prior to each feeding. Separate syringes were used for placebo and drug. Pups were wrapped in fleece during feeding, which lasted about 2-5 minutes each. Lysates for metabolite analysis were prepared as follows: 50-100 mg pieces of previously frozen liver or brain were homogenized by grinding for 30 seconds using a Teflon micropestle and handheld micropestle motor (Kimble Chase Life Science and Research Products LLC) in 125 μl ice-cold HPLC-grade water. Metabolites were separated and quantified by HPLC (See, e.g., Daenzer, et al. Dis. Model Mech. 2016, 9(11):1375-1382)). Galactitol, inositol, and glucose were quantified using the same HPLC conditions described to quantify galactose by (Daenzer, 2016). Metabolite levels were normalized to the total area of peaks detected by the relevant column and elution run for that sample, minus the peaks that most distinguished homozygous M3/M3 samples from controls. Specifically, metabolites separated on the MA1 column (galactitol, inositol, galactose and glucose) were normalized to total peak area minus galactose and galactitol, and metabolites separated on the PA10 column (galactose-1P) were normalized to total peak area minus galactose and galactose-1P.

| Compound | qualitative assessment of cataracts (scale of 0-3) (GALT-null rats [1]; day nine of life, versus placebo, FIG. 2A) | cataracts (qualitative initial study and digitally quantified follow-on study) (GALT-null rats [2]; GALT null rats, 1,000 mg/kg BID or 250 mg/kg BID in follow-on study) | reduction of brain galactitol levels compared to placebo (GALT-null rats [3]; day 9) | reduction of liver galactitol levels compared to placebo (GALT-null rats [3]; day 9) | reduction of brain galactitol levels compared to placebo (GALT-null rats [3]; day 15-18) | reduction of liver galactitol levels compared to placebo (GALT-null rats [3]; day 15-18) | qualitative assessment of cataracts (0-3 scale) (GALT-null rats [1]; day 10 of life, FIG. 2C) | qualitative assessment of cataracts (0-3 scale) (GALT-null rats [1]; day 22 of life, placebo average severity 1.5, FIG. 2D) | digital quantitative analysis of cataracts (score) (GALT-null rats [2]; GALT null rats, day 22 of life, FIG. 2B) | galactitol levels in liver, brain and plasma (GALT-null rats [3]; day 10 of life, FIG. 3A) | galactose levels (GALT-null rats [3]; day 10 of life, FIG. 3B) | Gal1P levels (GALT-null rats [3]; day 10 of life, FIG. 3C) |
| --- | --- | --- | --- | --- | --- | --- | --- | --- | --- | --- | --- | --- |
| O=C(O)Cc1nn(Cc2nc3cc(C(F)(F)F)ccc3s2)c(=O)c2nccnc12 [Compound A] | no cataracts | reduced cataracts | 40% | 87% | 57% | 57% |  |  |  |  |  |  |
| O=C(O)Cc1nn(Cc2cc3cc(C(F)(F)F)ccc3s2)c(=O)c2cscc12 [Compound B] |  |  |  |  |  |  | had cataracts | did not have cataracts; also recorded: cataracts were not present | the same score as wild type rats | normal or near normal levels | did not further increase | did not further increase |
